Source: PubChem BioAssay AID1996
Converted amounts (≈) assume the structure as drawn.

Conditions: buffer; pH 7.4; 200.0 µM

Row | SMILES | solubility kinetic
1 | CCOc1ccccc1Nc1cc(C)nc2ccc(C)cc12 | > 43.9 µg/mL
2 | COc1ccc(NC(=O)N2CCc3ccccc3C2)c(OC)c1 | 42.3 µg/mL (≈ 135 µM)
3 | CC(=O)NCCc1ccc(C(=O)Cn2cnc3ccccc3c2=O)cc1 | > 52.4 µg/mL
4 | CCCCCC#CCN1CCN(C23CC4CC(CC(C4)C2)C3)CC1 | 42.8 µg/mL (≈ 130 µM)
5 | O=C(CN1CCCCC1)NC(=O)NC1CCCCC1 | > 40.1 µg/mL
6 | NC(=O)COC(=O)c1cc(=O)[nH]c2ccccc12 | > 36.9 µg/mL
7 | O=C1CC(Sc2ncccc2C(=O)O)C(=O)N1 (stereo not given) | > 37.8 µg/mL
8 | Cc1ccc(SCC(=O)NCC2CCCO2)cc1 (stereo not given) | > 39.8 µg/mL
9 | CCC(C)NC(=O)c1cc2c(=O)n(CC)c3ccccc3c2s1 (stereo not given) | 2.3 µg/mL (≈ 7 µM)
10 | Cc1cc(C(=O)CN2C(=O)NC3(CCC(C)CC3)C2=O)c(C)n1C (stereo not given) | 13.3 µg/mL (≈ 40.1 µM)
11 | COC(=O)c1ccc(C(=O)OC)c(NC(=O)CSCC(=O)O)c1 | > 51.2 µg/mL
12 | O/N=C(/c1ccc(F)cc1)C1CC1c1c(F)cccc1Cl (stereo not given) | 5 µg/mL (≈ 16.2 µM)
13 | COc1ccc(OC)c(Nc2nc(-c3ccncc3)nc3ccccc23)c1 | < 0.2 µg/mL
14 | N#C/C(=C/c1ccc(O)cc1)C(=O)NCc1ccc(Cl)cc1 | 4.3 µg/mL (≈ 13.7 µM)
15 | CCOc1ccc2nc(NS(=O)(=O)c3cccs3)sc2c1 | 9.9 µg/mL (≈ 29.1 µM)
16 | Cc1ccccc1N1CC(C(=O)N2CC(C)OC(C)C2)CC1=O (stereo not given) | 47.1 µg/mL (≈ 149 µM)
17 | c1ccc(NC2=Nc3cccc4cccc2c34)cc1 | 0.6 µg/mL (≈ 2.46 µM)
18 | CC1(C)C2C(Cl)(Cl)C2(C)c2ccccc2N1C=O (stereo not given) | 38.3 µg/mL (≈ 135 µM)
19 | CCOC(=O)C1(C(F)(F)F)N=C(c2ccccc2F)OC(N(C)C)=N1 (stereo not given) | 42.2 µg/mL (≈ 117 µM)
20 | O=C(CN1C(=O)NC2(CCCc3ccccc32)C1=O)c1ccccc1F (stereo not given) | 10.4 µg/mL (≈ 29.5 µM)

Row | SMILES | solubility kinetic
21 | CCN1CCN(C(=O)/C=C/c2ccc(OC)cc2)CC1 | > 41.2 µg/mL
22 | NC(=O)Nc1ccccc1C(=O)Nc1ccc2ccccc2c1 | 19.6 µg/mL (≈ 64.2 µM)
23 | Cc1nn(CC(=O)Nc2ccc(N3CCOCC3)cc2)c(C)c1[N+](=O)[O-] | > 53.9 µg/mL
24 | Clc1ccc(Nc2ccc3ccccc3n2)cc1 | < 0.3 µg/mL
25 | O=C(O)c1ccc(NC(=O)c2cc3ccccc3o2)cc1 | > 42.2 µg/mL
26 | COc1ccc(OC)c(NC(=O)CCc2c[nH]c3ccccc23)c1 | 10.9 µg/mL (≈ 33.6 µM)
27 | CCc1cc(=O)[nH]c(SCc2cccc3ccccc23)n1 | 2.8 µg/mL (≈ 9.45 µM)
28 | O=C(Nc1ccncc1)Nc1ccncc1 | > 32.1 µg/mL
29 | O=C(CSc1cc(Cl)ccc1Cl)NCCN1C(=O)CSC1=O | > 56.9 µg/mL
30 | COc1ccc(C(=O)COC(=O)c2cnc(C)cn2)c(OC)c1 | > 47.4 µg/mL
31 | COc1ccc(C2(NC(C)=O)CCN(Cc3cccnc3)CC2)cc1 | 40.9 µg/mL (≈ 120 µM)
32 | Cc1ccc(NC(=O)Cn2cnc([N+](=O)[O-])c2)cc1C | > 41.1 µg/mL
33 | Cc1ccnc(NC(=O)CCNC(=O)c2ccc(Cl)cc2)c1 | 14.9 µg/mL (≈ 46.9 µM)
34 | COc1cc2c(cc1OC)CN(C(=O)/C=C/c1ccc(F)cc1)CC2 | 46.9 µg/mL (≈ 137 µM)
35 | O=C(CN1C(=O)NC(Cc2c[nH]c3ccccc23)C1=O)Nc1ccccc1C(F)(F)F (stereo not given) | > 64.6 µg/mL
36 | CN1CCc2cccc3c2[C@@H]1Cc1ccc(O)c(O)c1-3.Cl | 12.5 µg/mL
37 | CC(NC(=S)NC1CCC(C(C)(C)C)CC1)c1ccccc1 (stereo not given) | < 0.3 µg/mL
38 | O=C(Nc1cccc(Cl)c1)Nc1ccon1 | 10.7 µg/mL (≈ 45 µM)
39 | N#CC(C#N)=C(N)Nc1cccc(Cl)c1 | 30.7 µg/mL (≈ 140 µM)
40 | CN1CCN(CCCNC(=S)Nc2ccc(F)c(Cl)c2)CC1 | 43 µg/mL (≈ 125 µM)

Row | SMILES | solubility kinetic
41 | CC(C)C(CCNCc1ccccn1)c1ccc(Cl)cc1 (stereo not given) | 24.8 µg/mL (≈ 81.9 µM)
42 | O=C1CCN(S(=O)(=O)c2ccc(Cl)cc2)CCN1 | > 43.3 µg/mL
43 | Nc1ccc(CN2CCOCC2)cc1 | > 28.8 µg/mL
44 | CCOc1ccc(C(=O)CCN2CCOCC2)cc1.Cl | 44.9 µg/mL
45 | COc1ccccc1N/C(N)=N/c1nc(C)cc(C)n1 | 38.2 µg/mL (≈ 141 µM)
46 | O=C(NCc1ccc(F)cc1)N1CCc2ccccc2C1 | 39.3 µg/mL (≈ 138 µM)
47 | CN(C)c1ccncc1C(=O)Nc1ccc(F)cc1F | > 41.6 µg/mL
48 | COc1ccc(N=CC2=C(O)CC(C)(C)CC2=O)cc1OC | > 45.5 µg/mL
49 | CCCCCc1nnc(NC(=O)c2ccc(=O)n(C)n2)s1 | > 46.1 µg/mL
50 | O=C(O)c1cccc(S(=O)(=O)N2CCN(c3ccccn3)CC2)c1 | > 52.1 µg/mL
51 | CN(C)S(=O)(=O)N1CCN(c2ccc([N+](=O)[O-])c(NC3CC3)c2)CC1 | 0.6 µg/mL (≈ 1.62 µM)
52 | O=C(CN1C(=O)NC2(CCCC2)C1=O)NCc1ccc(F)cc1 | > 47.9 µg/mL
53 | CC(=O)Nc1ccccc1C(F)(F)F | 5.5 µg/mL (≈ 27.1 µM)
54 | CCc1noc(C)c1C(=O)OCC(=O)Nc1ccc(F)cc1Cl | 10.8 µg/mL (≈ 31.7 µM)
55 | O=C(CN1C(=O)NC2(CCCC2)C1=O)Nc1ccc(Cl)cc1F | 49.8 µg/mL (≈ 147 µM)
56 | Nc1sc2c(c1C(=O)NCCc1ccccc1)CCC2 | 17 µg/mL (≈ 59.4 µM)
57 | O=C(CNS(=O)(=O)c1ccccc1)Nc1ccc(F)cc1F | > 48.9 µg/mL
58 | COc1ccc2c(c1)c1ncn(Cc3ccccn3)c(=O)c1n2C | 13.6 µg/mL (≈ 42.5 µM)
59 | Fc1ccc(N=Cc2ccc[nH]2)cc1 | 11 µg/mL (≈ 58.4 µM)
60 | c1ccc2cc(CNCc3cccc4ccccc34)ccc2c1 | 4.1 µg/mL (≈ 13.8 µM)
